Assay results taken from patent publication US5545669A, “Anti-inflammatory compounds” (priority 1994, dated 1996).

Columns and labels:
Format in all cases: cell-based
[1] = system: LTC4 release by human monocytes; assay: Assay (f): stimulated eicosanoid release by human monocytes, LTC4; conditions: Monocyte, 0.25 h, A23187 1 μM, 15 min
Procedure: (§1) Human Monocyte Isolation. Leukocyte-rich leukopaks obtained from Biological Specialties (Lansdale, Pa.) were collected from male volunteers who were not taking antiinflammatory drugs. Leukopaks were centrifuged (90×g for 15 min) twice to remove the platelet-rich plasma. The cell pellet was washed by centrifugation and resuspended in HBSS without Ca^2+ or Mg^2+. Histopaque 1077 was layered under the cell suspension and centrifuged at 400×g for 30 min to obtain the buffy coat. The interfacial buffy coat, containing monocytes and lymphocytes, was removed and saved. The buffy coat was washed twice with HBSS Without Ca^2+ or Mg^2+ by centrifugation. The cell pellet (4-6×10^8 cells/30 mls) was resuspended in iso-osmotic media (RPMI-1640, 10% heat inactivated fetal bovine serum (FBS), 0.2 mM L-glutamine, 2.5 mM HEPES) and layered over an equal volume of 46% Percol mixture (10X PBS/Percol; 9.25/0.75) and 54% iso-osmotic media and centrifuged for 30 min at 1000×g (Marshall and Roshak, Biochem. Cell Biol. 71: 331-339, 1993). The monocyte population located at the interface of the Percoll gradient was removed and washed twice in HBSS without Ca^2+ or Mg^2+.
(§2) Measurement of Stimuli-Induced Eicosanoid Release Monocytes (5×10^6 /ml) were incubated as a suspension in serum-free RPMI-1640 medium containing the vehicle DMSO (<1%) or drug for 30 min at 27° C. after which vehicle or stimuli was added for the indicated time. The stimulating agent is solubilized in DMSO and appropriate vehicle controls were included in all experiments. The amount of stimuli was chosen from the linear portion of a concentration versus product curve usually representing 60-80% maximal stimulation over the indicated incubation time at 37° C. (A23187, 1 μM,(15 min). The reaction was terminated by reduction of pH through addition of citric acid and centrifugation (10 min, 400×g, 4° C.). Cell viability was monitored before and after experiments using trypan blue exclusion. The cell-free media was decanted and stored at -70° C. until analyzed. Prostaglandin E2 and LTC4 were directly measured in cell-free media using enzyme immunoassay (EIA) kits purchased from Caymen Chemical Co. (Ann Arbor, Mich.). Sample or standard dilutions were made with appropriate media and analyzed in triplicate. Results were obtained by extrapolation from a standard curve prepared in the media and expressed as pg or ng/ml of sample.

[2] = system: PGE2 release by human monocytes; assay: Assay (f): stimulated eicosanoid release by human monocytes, Prostaglandin E2; conditions: Monocyte, 0.25 h, A23187 1 μM, 15 min
Procedure: as §1, §2

[3] = system: mouse bone marrow-derived mast cells; assay: Assay (e): arachidonate content of cellular phospholipids; conditions: 24-48 hours in culture
Procedure: The following is the method for assessing the ability of a compound to alter arachidonate content of cellular phospholipids, which can be generalized for any desired cell. Specifically, mouse bone marrow-derived mast cells are removed from culture and provided with exogenous [^3 H]arachidonic acid for 30 minutes. The labeled arachidonic acid which had not been incorporated into the cells is then removed by washing the cells 2 times with an albumin-containing buffer. At that point, the cells are treated with various concentrations of CoA-IT inhibitors and then placed back in culture for 24-48 hours. The phospholipids are extracted by the method of Bligh and Dyer [Can. J. Biochem. Physiol. (1959) 37,911-917] and phospholipids separated by normal phase HPLC by the method of Chilton [Methods Enzymol. (1990)187, 157-166]. The radioactive and mole quantities of arachidonate in complex lipids are determined. At this point, cellular lipid extracts are treated with KOH (0.5M) to remove fatty acids from complex lipids (phospholipids) and the quantities of arachidonate in these extracts can then be determined by various methods, including gas chromatography and mass spectrometry (Chilton [Methods Enzymol. (1990)187, 157-166]).

IC50 [1]: 300 nM
IC50 [2]: > 30000 nM
SMILES: O=C(O)c1ccccc1Oc1ccc(C(F)(F)F)cc1NS(=O)(=O)c1cc(C(F)(F)F)cc(C(F)(F)F)c1 [Example 1, 2-[2-[3,5-Bis(trifluoromethyl)phenylsulfonamido]-4-trifluoromethylphenoxy]benzoic acid]
decreasing the arachidonic content [3]: positive activity
